Test results: patent US4620014A, “2-furylbutyrolactones and methods for using same” (priority 1983, dated 1986)
Read-outs that look alike come from different tables or passages of the source.

How the values were obtained:
[1] = Dissolution in bicarbonate buffered saline; assay type: physicochemical; conditions: 0.238 molar bicarbonate buffered saline (0.85%)
[2] = system: spleen lymphocytes of SJL/J mice
Protocol: (§1) The purpose of this assay is to challenge lymphocytes in microcultures with one or more polyclonal mitogens at concentrations that will induce mitogenesis within 72 hours of stimulation.
(§2) In the mouse model, spleens are removed from different strains of mice and the spleen cells are teased free and suspended in RPMI-1640 tissue culture medium at a concentration of usually 1×10^7 ml. These cells are dispensed at a concentration of 5.0×10^5 cells per microculture well in a 96 well flat bottom 96 well tissue culture plate. All testing of the compounds of this invention or mitogens are done in replicates of 10. The cells are then treated with PHA, Con-A, specific antigens, or buffer only. If in vitro testing is done, varying concentrations of the compounds of this invention or buffer only are added to the cells as well. After treatment with the mitogens and/or compounds of this invention, the cells are incubated for 72 hours. The response of these cells to mitogens and/or the compounds of this invention is assessed using ^14 C-thymidine labeling on the fourth day at a concentration of 0.01 μCi/well. The labeled cells are harvested using a lymphocyte harvestor and placed onto fibrous paper discs. A scintillation cocktail is added to vials contaning the discs and the results are obtained using a LKB-liquid scintillation counter (Model 1216/Rackbeta II). The data is expressed as a ratio of the cpm of the mitogen stimulated group to the control (non-mitogen) treated group=lymphocyte stimulation index (LSI).
The lymphocyte stimulation assay may be performed directly on spleen cells obtained from various strains of mice not treated with the compounds of this invention or on lymphocytes obtained from […]. […] Alternatively, the mice may be treated in vivo with the compounds of this invention by intraperitoneal multi-dose schedules, followed by sacrifice and harvesting spleen lymphocytes. These cells are then tested for their response to polyclonal mitogens or specific antigens used to immunize the mice. In this sytem however, no additional compound is added to the in vitro lymphocyte stimulation assay system.
Three month old mice of the SJL/J strain, which are T-cell deficient, are treated with i.p. administration of 100, 200, or 400 mg/kg of Cpd. 1 or just buffer for four days. This is followed by a lymphocyte stimulation assay.
An in vivo lymphocyte stimulation assay was performed on SJL/J mice of different ages, either 2, 5, or 10 months. The mice received i.p. injections of either 100 mg/kg of Cpd. 1 or just buffer.

human lymphocytes = test: In vitro lymphocyte stimulation assay in humans; assay type: cell-based; conditions: PHA and Con-A
Protocol: as §1, §2
The lymphocyte stimulation assay may be performed directly on spleen cells obtained from various strains of mice not treated with the compounds of this invention or on lymphocytes obtained from […]. […] Alternatively, the mice may be treated in vivo with the compounds of this invention by intraperitoneal multi-dose schedules, followed by sacrifice and harvesting spleen lymphocytes. These cells are then tested for their response to polyclonal mitogens or specific antigens used to immunize the mice. […]

[3] = 100 mg/kg i.p., four days, three month old mice
[4] = 200 mg/kg i.p., four days, three month old mice
[5] = 400 mg/kg i.p., four days, three month old mice

SMILES: Cc1ccc(C2(O)C(=O)OC3C(O)COC32O)o1.Cc1ccc(C2(O)C(=O)OC3C(O)COC32O)o1.O=C1CCC(=O)O1 (stereo not shown) [Cpd. 1]
- dissolution [1]: dissolves completely
- Lymphocyte Stimulation Index, Con-A ([2]; 100 mg/kg i.p., age 2 months): 167
- Lymphocyte Stimulation Index, Control (no mitogen) ([2]; 100 mg/kg i.p., age 2 months): 2.3
- Lymphocyte Stimulation Index, PHA ([2]; 100 mg/kg i.p., age 2 months): 32.6
- Lymphocyte Stimulation Index, Con-A ([2]; 100 mg/kg i.p., age 5 months): 12.9
- Lymphocyte Stimulation Index, Control (no mitogen) ([2]; 100 mg/kg i.p., age 5 months): 1.9
- Lymphocyte Stimulation Index, PHA ([2]; 100 mg/kg i.p., age 5 months): 1.16
- Lymphocyte Stimulation Index, Con-A ([2]; 100 mg/kg i.p., age 10 months): 14.5
- Lymphocyte Stimulation Index, Control (no mitogen) ([2]; 100 mg/kg i.p., age 10 months): 2.1
- Lymphocyte Stimulation Index, PHA ([2]; 100 mg/kg i.p., age 10 months): 9.18
- Lymphocyte Stimulation Index, Con-A [2, 3]: 5.01
- Lymphocyte Stimulation Index, Control (no mitogen) [2, 3]: 0.573
- Lymphocyte Stimulation Index, PHA [2, 3]: 1.85
- Con-A response ([2]; 100 mg/kg, 2 months of age): increased
- PHA response ([2]; 100 mg/kg, 2 months of age): decreased
- mitogenesis response to PHA and Con-A ([2]; 100 mg/kg, 5 months of age): depressed mitogenesis response
- PHA and Con-A mitogenic response ([2]; 100 mg/kg, ten month old): significant stimulation
- Lymphocyte Stimulation Index, Con-A [2, 4]: 4.57
- Lymphocyte Stimulation Index, Control (no mitogen) [2, 4]: 0.732
- Lymphocyte Stimulation Index, PHA [2, 4]: 1.79
- Lymphocyte Stimulation Index, Con-A [2, 5]: 3.30
- Lymphocyte Stimulation Index, Control (no mitogen) [2, 5]: 0.693
- Lymphocyte Stimulation Index, PHA [2, 5]: 2.31
- lymphocyte response, very low doses (human lymphocytes; 1 and 0.1 μg/ml): markedly increased lymphocyte response
- lymphocyte response, high dose (human lymphocytes; 100 and 50 μg/ml): high dose anti-proliferative effect
